# Values of other authors as cited in PMC5742115, “Pharmacophore Modeling and in Silico/in Vitro Screening for Human Cytochrome P450 11B1 and Cytochrome P450 11B2 Inhibitors” (Frontiers in Chemistry, 2017).
# Like-named read-outs stand apart in the source and are kept apart here.
# What was measured:
# CYP11B1 = conditions: reported activity, supplementary Table 1, read-out: CYP11B1 IC50, cited from earlier work
# CYP11B2 = conditions: reported activity, supplementary Table 1, read-out: CYP11B2 IC50, cited from earlier work
Compound,"IC50 (CYP11B1; ref Heim et al., 2008) [µM]","IC50 (CYP11B2; ref Heim et al., 2008) [µM]","IC50 (CYP11B1; ref Roumen et al., 2010) [µM]","IC50 (CYP11B2; ref Roumen et al., 2010) [µM]",also measured
COc1ccc2cc(-c3cncc4ccccc34)ccc2c1 [CHEMBL500394],0.067,0.0006,,,
COc1ccc2cc(-c3cncc(C(C)O)c3)ccc2c1 (stereo not shown) [CHEMBL500395],0.099,0.0005,,,
COCc1cncc(-c2ccc3cc(OC)ccc3c2)c1 [CHEMBL500421],0.031,0.0002,,,
COc1ccc2cc(-c3cncc(O)c3)ccc2c1 [CHEMBL500636],8.93,0.094,,,
N#Cc1ccc2c(c1)CCC(c1cccnc1)=C2 [CHEMBL500663],0.461,0.0045,,,
COc1ccc2cc(-c3cnccc3C)ccc2c1 [CHEMBL500664],0.114,0.0008,,,
Cc1ccncc1-c1ccc2cc(C#N)ccc2c1 [CHEMBL500665],0.052,0.0006,,,
COCc1ccncc1-c1ccc2cc(OC)ccc2c1 [CHEMBL500676],0.435,0.0022,,,
COc1ccc2c(c1)CC(C)C(c1cccnc1)=C2 (stereo not shown) [CHEMBL502266],0.248,0.0033,,,
COc1cncc(-c2cc3ccc(OC)cc3cc2C)c1 [CHEMBL502818],0.875,0.0038,,,
COc1ccc2cc(-c3cncc(C(C)=O)c3)ccc2c1 [CHEMBL502824],0.255,0.0021,,,
S=C1CCc2cc(-c3cccnc3)cc(Cl)c2N1 [CHEMBL508155],,,,,"IC50 (CYP11B1; ref Lucas et al., 2008b): 0.769 µM; IC50 (CYP11B2; ref Lucas et al., 2008b): 0.0042 µM"
O=C1CSc2cc(-c3cccnc3)ccc2N1 [CHEMBL509971],,,,,"IC50 (CYP11B1; ref Lucas et al., 2008b): 0.525 µM; IC50 (CYP11B2; ref Lucas et al., 2008b): 0.012 µM"
S=C1CCc2cc(-c3cccnc3)ccc2N1 [CHEMBL511329],,,,,"IC50 (CYP11B1; ref Lucas et al., 2008b): 0.58 µM; IC50 (CYP11B2; ref Lucas et al., 2008b): 0.0031 µM"
COc1ccc2cc(-c3cncc4ccccc34)c(C)cc2c1 [CHEMBL525785],0.843,0.0031,,,
COC(=O)Cc1cncc(-c2ccc3cc(OC)ccc3c2)c1 [CHEMBL526339],0.199,0.0069,,,

Compound,"IC50 (CYP11B1; ref Heim et al., 2008) [µM]","IC50 (CYP11B2; ref Heim et al., 2008) [µM]","IC50 (CYP11B1; ref Roumen et al., 2010) [µM]","IC50 (CYP11B2; ref Roumen et al., 2010) [µM]",also measured
COC(=O)CCc1cncn1Cc1ccc(C#N)cc1 [CHEMBL591229],,,0.031,0.0035,
OCCCc1cncn1Cc1ccc(F)cc1 [CHEMBL591465],,,0.116,0.016,
COc1ccc(Cn2cncc2-c2ccccc2)cc1 [CHEMBL591697],,,0.011,0.014,
COC(=O)c1cncn1Cc1ccc(C#N)cc1 [CHEMBL591698],,,0.048,0.007,
COC(=O)CCc1cncn1Cc1ccc(Br)cc1 [CHEMBL592614],,,0.057,0.004,
Clc1ccc(Cn2cncc2-c2ccccc2)cc1 [CHEMBL597101],,,0.025,0.0058,
Brc1ccc(Cn2cncc2-c2ccccc2)cc1 [CHEMBL597173],,,0.007,0.0051,
N#Cc1ccc(Cn2cncc2-c2ccccc2)cc1 [CHEMBL597578],,,0.028,0.0017,
N#Cc1ccc(Cn2cncc2CCCO)cc1 [CHEMBL598399],,,0.048,0.013,
OCCCc1cncn1Cc1ccc(Cl)cc1 [CHEMBL598606],,,0.044,0.055,
N#Cc1ccc(Cn2cncc2-c2cccc(F)c2)cc1 [CHEMBL598789],,,0.032,0.0055,
N#Cc1ccc(Cn2cncc2-c2ccc(F)cc2)cc1 [CHEMBL598790],,,0.027,0.025,
OCCCc1cncn1Cc1ccc(Br)cc1 [CHEMBL598810],,,0.018,0.0062,
COC(=O)OCc1cncn1Cc1ccc(C#N)cc1 [CHEMBL599222],,,0.213,0.044,
N#Cc1ccc(Cn2cncc2Br)cc1 [CHEMBL599223],,,0.073,0.023,
N#Cc1ccc(Cn2cncc2CO)cc1 [CHEMBL599601],,,0.285,0.029,
